Measurements reported in patent US20220356174A1, “PYRIDIN-2-ONE COMPOUNDS USEFUL AS SMARCA2 ANTAGONISTS” (Epizyme, Inc., priority 2018, published 2022).
Where two headings read alike, the source gives them in different places.

What was measured:
[1] = molecular target: T1, FL-SMARCA2 (full-length human SMARCA2 isoform 1) (Homo sapiens, UniProt P51531); assay: SMARCA2 ATPase activity assay (ADP-Glo, chicken mononucleosome substrate); assay type: biochemical; details: ATP 250 uM
T1 construct: FLAG tag (YKDDDDK) (C); made in house; host or cells: Sf21 insect cells (baculovirus, pFastBacI)
T1 sequence (P51531 with tags, fused parts or gaps): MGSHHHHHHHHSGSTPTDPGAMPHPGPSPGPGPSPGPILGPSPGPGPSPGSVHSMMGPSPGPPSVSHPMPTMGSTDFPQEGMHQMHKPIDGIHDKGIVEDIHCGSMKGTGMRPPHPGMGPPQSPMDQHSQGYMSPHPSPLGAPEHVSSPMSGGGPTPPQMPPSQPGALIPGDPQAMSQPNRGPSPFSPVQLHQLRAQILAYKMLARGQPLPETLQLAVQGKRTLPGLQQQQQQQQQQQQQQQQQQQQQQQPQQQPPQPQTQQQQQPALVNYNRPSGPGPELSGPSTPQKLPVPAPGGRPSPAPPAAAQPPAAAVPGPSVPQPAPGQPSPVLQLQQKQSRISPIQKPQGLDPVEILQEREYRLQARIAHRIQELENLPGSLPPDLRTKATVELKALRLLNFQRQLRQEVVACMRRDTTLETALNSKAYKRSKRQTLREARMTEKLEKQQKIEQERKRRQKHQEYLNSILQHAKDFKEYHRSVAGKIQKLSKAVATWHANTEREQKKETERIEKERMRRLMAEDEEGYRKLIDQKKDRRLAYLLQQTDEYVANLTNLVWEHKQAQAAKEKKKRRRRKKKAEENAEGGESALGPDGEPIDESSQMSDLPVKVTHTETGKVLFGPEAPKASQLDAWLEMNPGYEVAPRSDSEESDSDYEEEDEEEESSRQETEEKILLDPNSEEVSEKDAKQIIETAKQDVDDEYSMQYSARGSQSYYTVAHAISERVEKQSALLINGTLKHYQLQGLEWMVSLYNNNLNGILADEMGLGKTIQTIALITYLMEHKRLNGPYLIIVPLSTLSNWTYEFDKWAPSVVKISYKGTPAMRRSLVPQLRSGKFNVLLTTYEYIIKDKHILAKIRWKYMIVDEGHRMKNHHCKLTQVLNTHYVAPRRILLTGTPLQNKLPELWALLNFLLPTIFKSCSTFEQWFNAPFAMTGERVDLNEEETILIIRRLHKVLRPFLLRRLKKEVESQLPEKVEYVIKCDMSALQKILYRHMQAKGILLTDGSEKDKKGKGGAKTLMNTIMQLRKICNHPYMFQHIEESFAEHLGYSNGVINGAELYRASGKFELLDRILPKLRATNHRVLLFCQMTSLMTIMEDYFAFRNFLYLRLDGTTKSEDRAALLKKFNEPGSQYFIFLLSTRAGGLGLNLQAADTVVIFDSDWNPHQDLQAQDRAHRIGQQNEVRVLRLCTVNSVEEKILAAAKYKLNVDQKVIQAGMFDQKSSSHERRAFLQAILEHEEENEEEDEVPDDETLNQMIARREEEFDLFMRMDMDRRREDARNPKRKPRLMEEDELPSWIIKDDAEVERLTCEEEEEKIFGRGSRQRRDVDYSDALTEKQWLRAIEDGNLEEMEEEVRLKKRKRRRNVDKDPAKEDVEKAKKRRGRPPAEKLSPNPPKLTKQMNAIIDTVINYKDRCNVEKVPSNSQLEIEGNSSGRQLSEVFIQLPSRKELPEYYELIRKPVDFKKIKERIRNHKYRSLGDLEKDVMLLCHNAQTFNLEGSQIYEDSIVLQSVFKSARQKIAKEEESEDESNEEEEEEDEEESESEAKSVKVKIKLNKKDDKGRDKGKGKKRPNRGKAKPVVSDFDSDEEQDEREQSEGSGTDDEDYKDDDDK

[2] = molecular target: FL-SMARCA4 (Homo sapiens, UniProt P51532); assay: SMARCA4 ATPase activity assay (ADP-Glo, chicken mononucleosome substrate)
FL-SMARCA4, sequence (P51532 whole entry): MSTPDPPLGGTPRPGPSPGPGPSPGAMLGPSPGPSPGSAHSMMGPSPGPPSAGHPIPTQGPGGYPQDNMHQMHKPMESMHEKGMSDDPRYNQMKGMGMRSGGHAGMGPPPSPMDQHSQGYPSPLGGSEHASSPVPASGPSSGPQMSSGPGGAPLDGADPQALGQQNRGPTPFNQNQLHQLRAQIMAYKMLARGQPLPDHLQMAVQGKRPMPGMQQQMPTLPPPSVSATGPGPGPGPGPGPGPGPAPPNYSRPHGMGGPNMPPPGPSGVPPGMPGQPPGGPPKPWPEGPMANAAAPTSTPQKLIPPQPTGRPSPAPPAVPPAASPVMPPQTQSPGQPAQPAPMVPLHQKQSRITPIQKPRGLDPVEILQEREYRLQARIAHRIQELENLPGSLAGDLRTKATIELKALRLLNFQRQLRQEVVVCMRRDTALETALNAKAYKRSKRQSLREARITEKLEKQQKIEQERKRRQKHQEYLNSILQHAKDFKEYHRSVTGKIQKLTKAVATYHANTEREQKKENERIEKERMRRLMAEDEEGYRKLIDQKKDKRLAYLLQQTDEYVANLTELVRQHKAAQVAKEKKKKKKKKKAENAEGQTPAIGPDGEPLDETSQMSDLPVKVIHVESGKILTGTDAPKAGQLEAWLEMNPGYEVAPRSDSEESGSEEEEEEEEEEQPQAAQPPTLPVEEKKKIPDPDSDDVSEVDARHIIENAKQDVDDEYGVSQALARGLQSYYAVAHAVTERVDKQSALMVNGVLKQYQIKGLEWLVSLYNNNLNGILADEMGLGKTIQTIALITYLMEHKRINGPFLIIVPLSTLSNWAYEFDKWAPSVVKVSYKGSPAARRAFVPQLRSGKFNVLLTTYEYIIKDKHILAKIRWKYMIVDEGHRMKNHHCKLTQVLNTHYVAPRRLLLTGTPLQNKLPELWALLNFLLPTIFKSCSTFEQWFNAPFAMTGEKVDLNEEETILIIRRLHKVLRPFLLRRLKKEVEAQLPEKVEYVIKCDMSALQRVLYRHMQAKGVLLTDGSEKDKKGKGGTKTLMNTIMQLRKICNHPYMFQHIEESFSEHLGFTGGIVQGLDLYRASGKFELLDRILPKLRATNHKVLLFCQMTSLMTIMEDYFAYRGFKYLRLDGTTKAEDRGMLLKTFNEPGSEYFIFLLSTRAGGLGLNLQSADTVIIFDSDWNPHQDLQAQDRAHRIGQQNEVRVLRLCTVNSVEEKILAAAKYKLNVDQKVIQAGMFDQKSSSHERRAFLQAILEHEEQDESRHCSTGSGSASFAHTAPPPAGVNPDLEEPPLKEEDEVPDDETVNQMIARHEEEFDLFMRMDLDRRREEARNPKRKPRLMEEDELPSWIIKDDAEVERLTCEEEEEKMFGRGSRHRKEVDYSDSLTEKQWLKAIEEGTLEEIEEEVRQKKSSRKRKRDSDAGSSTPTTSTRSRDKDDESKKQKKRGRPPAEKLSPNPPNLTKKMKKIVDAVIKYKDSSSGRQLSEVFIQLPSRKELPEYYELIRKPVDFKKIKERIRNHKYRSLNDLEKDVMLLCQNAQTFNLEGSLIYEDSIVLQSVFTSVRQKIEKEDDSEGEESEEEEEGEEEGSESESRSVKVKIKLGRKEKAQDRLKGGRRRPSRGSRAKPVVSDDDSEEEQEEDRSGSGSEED

[3] = Table 3c.1, ATPase assay, enzyme 5 nM, chicken mononucleosome 10 nM, 30 min preincubation
[4] = FL-SMARCA4 IC>50, Table 3c.2, ATPase assay, enzyme 5 nM, ATP 250 uM, chicken mononucleosome 10 nM, 30 min preincubation
[5] = Table 3.1, ATPase assay, enzyme 5 nM, chicken mononucleosome 10 nM, 30 min preincubation
[6] = FL-SMARCA4 IC50, Table 3.2, ATPase assay, enzyme 5 nM, ATP 250 uM, chicken mononucleosome 10 nM, 30 min preincubation
[7] = Table 3a.1, SMARCA2 5 nM, mononucleosome 10 nM
[8] = FL-SMARCA4 IC50, Table 3a.2, SMARCA4 5 nM, ATP 250 uM, mononucleosome 10 nM

| Structure (SMILES) | IC50 [1, 5] | IC50 [2, 6] | other results |
| --- | --- | --- | --- |
| O=C1CC(C#Cc2cc(C(=O)Nc3cc(F)c(=O)n(CC(F)F)c3)sc2Cl)CCN1 (centres unmarked) [Compound 105c] | – | – | IC50 [1, 3]: 0.0407 µM; IC50 [2, 4]: 0.172 µM |
| CC(C)Cn1cc(NC(=O)c2cc(Cl)c(Cl)s2)ccc1=O [Compound 76] | > 50 µM | > 50 µM | – |
| O=C(Nc1cc(F)c(=O)n(CCF)c1)c1cc(Cl)c(Cl)o1 [Compound 254] | 5.81 µM | 47.1 µM | – |
| CN(C)C(=O)c1cc(C(=O)Nc2cc(F)c(=O)n(CCF)c2)sc1Cl [Compound 299] | > 50 µM | > 50 µM | – |
| COc1ccc2cc(C(=O)Nc3cc(F)c(=O)n(CCF)c3)[nH]c2c1 [Compound 65a] | – | – | IC50 [1, 7]: 4.91 µM; IC50 [2, 8]: 27 µM |
| CN(C)CCn1cc(NC(=O)c2cc(Cl)c(Cl)n2C)ccc1=O [Compound 89] | > 50 µM | > 50 µM | – |
| CCn1cc(NC(=O)c2cc(C(F)(F)F)nn2C)ccc1=O [Compound 15] | > 50 µM | > 50 µM | – |
| N#Cc1cc(C(=O)Nc2cc(F)c(=O)n(CC(F)F)c2)sc1C1(F)CC1 [Compound 94d] | – | – | IC50 ([1]; Table 3d.1, ATPase assay, enzyme 5 nM, chicken mononucleosome 10 nM, 30 min preincubation, read-out: FL-SMARCA2 IC>50): 1.77 µM; IC50 ([2]; FL-SMARCA4 IC50): 17.9 µM |
| NCCCn1cc(NC(=O)c2cc(F)c(Cl)s2)cc(F)c1=O [Compound 28c] | – | – | IC50 [1, 3]: > 50 µM; IC50 [2, 4]: > 50 µM |
| N#Cc1ncc(C(=O)Nc2cc(F)c(=O)n(CCF)c2)o1 [Compound 266] | > 50 µM | > 50 µM | – |
| CCn1cc(NC(=O)c2ccc(F)s2)ccc1=O [Compound 26] | 19.6 µM | > 50 µM | – |
| O=C(Nc1cc(F)c(=O)n(CC(F)(F)CO)c1)c1cc(Cl)c(Cl)s1 [Compound 100c] | – | – | IC50 [1, 3]: 6.81 µM; IC50 [2, 4]: 27.6 µM |
| CCn1cc(NC(=O)c2cc(Cl)c(OC)s2)ccc1=O [Compound 116] | 39.3 µM | > 50 µM | – |
| CO[C@H]1C[C@@H](C(=O)Nc2ccc(=O)n(C)c2)N(C)C1 [Compound 10a] | – | – | IC50 [1, 7]: > 50 µM; IC50 [2, 8]: > 50 µM |
| NS(=O)(=O)c1cc(C(=O)Nc2cc(F)c(=O)n(CCF)c2)sc1Cl [Compound 310] | > 50 µM | > 50 µM | – |
| CCn1cc(NC(=O)c2cc(Cl)c(Cl)s2)cc(OCCOC)c1=O [Compound 118] | > 50 µM | > 50 µM | – |
| CNC(=O)c1sc(C(=O)Nc2cc(F)c(=O)n(CCF)c2)cc1Cl [Compound 278] | > 50 µM | > 50 µM | – |

| Structure (SMILES) | IC50 [1, 5] | IC50 [2, 6] | other results |
| --- | --- | --- | --- |
| Cn1nc(C(=O)Nc2cc(F)c(=O)n(CCF)c2)cc1C#N [Compound 244] | > 50 µM | > 50 µM | – |
| N#Cc1sc(C(=O)Nc2ccc(=O)n(CCF)c2)cc1Cl [Compound 132] | 0.142 µM | 0.3 µM | – |
| O=C(Nc1cc(F)c(=O)n(CC(F)F)c1)c1cc(C#CC2COC2)c(C2CC2)s1 [Compound 94c] | – | – | IC50 [1, 3]: > 50 µM; IC50 [2, 4]: > 50 µM |
| O=C(Nc1cc(F)c(=O)n(CCF)c1)N1CCn2ccnc2C1 [Compound 53a] | – | – | IC50 [1, 7]: > 50 µM; IC50 [2, 8]: > 50 µM |
| CCn1cc(NC(=O)c2cn3ccccc3n2)ccc1=O [Compound 20a] | – | – | IC50 [1, 7]: > 50 µM; IC50 [2, 8]: > 50 µM |
| CCn1cc(NC(=O)c2cc(Cl)c(Cl)s2)cc(Cl)c1=O [Compound 84] | 0.197 µM | 1.12 µM | – |
| O=C(Nc1cc(NCC2CCCN2)c(=O)n(CCF)c1)c1cc(Cl)c(Cl)s1 (centres unmarked) [Compound 268] | 16.7 µM | 41.8 µM | – |
| CCn1cc(NC(=O)c2cn3cccnc3n2)ccc1=O [Compound 21a] | – | – | IC50 [1, 7]: > 50 µM; IC50 [2, 8]: > 50 µM |
| COCCn1cc(NC(=O)c2nc(C)n(-c3ccccc3Cl)n2)ccc1=O [Compound 11] | > 50 µM | > 50 µM | – |
| CCn1cc(NC(=O)c2ccc(=O)n(-c3ccccc3F)n2)ccc1=O [Compound 1a] | – | – | IC50 [1, 7]: > 50 µM; IC50 [2, 8]: > 50 µM |
| C/C=C/c1cc(C(=O)Nc2ccc(=O)n(CC)c2)sc1Cl [Compound 279] | 24 µM | > 50 µM | – |
| CCn1cc(NC(=O)c2cc(C)nn2C)ccc1=O [Compound 16] | > 50 µM | > 50 µM | – |
| CN(C)CCCNc1cc(NC(=O)c2cc(Cl)c(Cl)s2)cn(CCF)c1=O [Compound 262] | 15.3 µM | 25.9 µM | – |
| CCn1cc(NC(=O)c2cnc(C#N)s2)ccc1=O [Compound 206] | 0.317 µM | 0.649 µM | – |
| CN(C)CCCc1cc(NC(=O)c2cc(F)c(Cl)s2)cn(CC(F)F)c1=O [Compound 7c] | – | – | IC50 [1, 3]: > 50 µM; IC50 [2, 4]: > 50 µM |
| CCn1cc(NC(=O)c2nnc(Cl)s2)ccc1=O [Compound 72] | 33.2 µM | > 50 µM | – |
| CCn1cc(NC(=O)c2cc(Cl)c(Cl)s2)cc(NCCN(C)C)c1=O [Compound 114] | 9.42 µM | 14.3 µM | – |
